# Source: US20040106626A1, “6-Membered unsaturated heterocyclic compounds useful for selective inhibition of the coagulation cascade” (Pharmacia Corporation, priority 2001, published 2004)
# pIC50: −log10 of the molar value.
# How the values were obtained:
# Type in all cases: biochemical
# [1] = molecular target: T1, recombinant soluble tissue factor and recombinant human factor VIIa (TF-VIIa) (Homo sapiens, UniProt P08709); assay: TF-VIIa assay (chromogenic substrate hydrolysis); conditions: reported only as less than or greater than 0.1 uM
# T1 construct: conversion of coagulation factor VII to VIIa by factor Xa; purchased American Diagnostica, Greenwich CT; host or cells: soluble TF made in house in E. coli
# Method in brief: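 100 nM soluble tissue factor and 2 nM recombinant human factor VIIa added to 0.4 mM N-methylsulfonyl-D-phe-gly-arg-p-nitroaniline with inhibitor in 50 mM Tris-HCl pH 8.0, 5 mM CaCl2, 100 mM NaCl, 0.1% BSA. Percent inhibition from OD405 versus control.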
# Human factor Xa = molecular target: T2, Human factor Xa (Homo sapiens, UniProt P00742); assay: Xa assay (chromogenic substrate S-2765); conditions: reported only as less than or greater than 30 uM; read-out: Factor Xa (II) IC50
# T2 construct: purchased Enzyme Research Laboratories, South Bend Ind
# Method in brief: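 Human factor Xa (0.3 nM) was incubated with inhibitor and 0.15 mM S-2765 in 50 mM Tris-HCl pH 8.0, 100 mM NaCl, 0.1% BSA. After 60 min at RT, p-nitroaniline release was read at 405 nm after background subtraction. Percent inhibition was calculated against uninhibited control.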
# [2] = tested on: Normal human pooled plasma; assay: Prothrombin time (PT) clotting assay; conditions: concentration at which prothrombin time is prolonged by 2x normal, reported as less than or greater than 50 uM
# Method in brief: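 Normal human pooled plasma incubated with 100 uM compound or saline, then thromboplastin (human tissue factor) added and clotting time recorded in a coagulation machine. Compounds exceeding 3× normal PT (11.0 s) are titrated to find the concentration doubling PT.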
# Human thrombin = molecular target: T3, Human thrombin (Homo sapiens, UniProt P00734); assay: Thrombin assay (chromogenic substrate); conditions: reported only as less than or greater than 30 uM; read-out: Thrombin (II) IC50
# T3 construct: converts prothrombin (II) to thrombin (IIa); purchased Calbiochem, La Jolla, Calif
# Method in brief: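 Chromogenic assay with p-nitroaniline-releasing substrate; thrombin activity read as OD405 nm. Percent inhibition calculated from experimental versus control absorbance.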
# T2 sequence (P00742 235-488 limits assumed): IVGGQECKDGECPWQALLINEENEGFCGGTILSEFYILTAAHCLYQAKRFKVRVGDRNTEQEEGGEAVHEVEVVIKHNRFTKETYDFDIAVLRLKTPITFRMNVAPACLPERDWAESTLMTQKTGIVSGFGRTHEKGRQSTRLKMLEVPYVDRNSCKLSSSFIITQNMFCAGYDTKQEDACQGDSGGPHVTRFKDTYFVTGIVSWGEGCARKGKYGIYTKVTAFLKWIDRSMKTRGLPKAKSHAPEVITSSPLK
# T2 sequence (P00742 41-179 limits assumed): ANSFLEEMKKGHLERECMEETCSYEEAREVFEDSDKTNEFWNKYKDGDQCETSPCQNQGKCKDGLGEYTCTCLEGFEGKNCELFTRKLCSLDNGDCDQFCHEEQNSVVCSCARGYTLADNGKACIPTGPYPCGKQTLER
# T1 sequence (P08709 213-466 limits assumed): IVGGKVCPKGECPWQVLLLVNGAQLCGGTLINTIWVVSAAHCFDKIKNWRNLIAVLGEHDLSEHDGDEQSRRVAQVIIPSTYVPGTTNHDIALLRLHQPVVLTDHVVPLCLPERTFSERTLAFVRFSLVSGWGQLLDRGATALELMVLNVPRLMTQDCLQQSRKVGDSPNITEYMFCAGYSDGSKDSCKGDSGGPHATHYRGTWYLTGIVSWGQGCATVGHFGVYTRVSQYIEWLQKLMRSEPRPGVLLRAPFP
# T1 sequence (P08709 61-212 limits assumed): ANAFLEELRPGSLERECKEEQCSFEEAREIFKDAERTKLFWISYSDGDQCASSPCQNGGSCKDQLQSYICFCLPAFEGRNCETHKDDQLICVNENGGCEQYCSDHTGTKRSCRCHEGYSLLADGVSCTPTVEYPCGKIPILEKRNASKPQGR
# T1 sequence (P13726 33-251 partner limits assumed): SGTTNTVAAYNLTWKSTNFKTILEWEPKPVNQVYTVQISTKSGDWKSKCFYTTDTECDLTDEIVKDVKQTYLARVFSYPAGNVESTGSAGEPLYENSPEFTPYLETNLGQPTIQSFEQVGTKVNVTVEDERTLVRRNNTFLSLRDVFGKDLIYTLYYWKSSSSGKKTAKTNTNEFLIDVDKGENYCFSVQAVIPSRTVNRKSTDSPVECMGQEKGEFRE
SMILES,pIC50 [1],pIC50 (Human factor Xa),PT (Prothrombin time) 2xPT [2] [µM],pIC50 (Human thrombin)
CC(CC(=O)Nc1cc(N)cc(-c2cnc(NC(C)C)c(=O)n2CC(=O)NCc2ccc(C(=N)N)cc2)c1)CC(C)(C)C.O=C(O)C(F)(F)F.O=C(O)C(F)(F)F (stereo not drawn) [Example 139],> 7.00,< 4.52,<50.0,> 4.52
CC(C)Nc1ncc(-c2cc(N)cc(NC(=O)[C@H]3C[C@@H]3c3ccccc3)c2)n(CC(=O)NCc2ccc(C(=N)N)cc2)c1=O.O=C(O)C(F)(F)F.O=C(O)C(F)(F)F [Example 140],> 7.00,< 4.52,<50.0,> 4.52
CC(C)Nc1ncc(-c2cc(N)cc(NC(=O)CC3CCCC3)c2)n(CC(=O)NCc2ccc(C(=N)N)cc2)c1=O.O=C(O)C(F)(F)F.O=C(O)C(F)(F)F [Example 141],> 7.00,< 4.52,<50.0,> 4.52
CC(C)Nc1ncc(-c2cc(N)cc(NC(=O)c3ccc(N(C)C)cc3)c2)n(CC(=O)NCc2ccc(C(=N)N)cc2)c1=O.O=C(O)C(F)(F)F.O=C(O)C(F)(F)F [Example 142],> 7.00,< 4.52,<50.0,< 4.52
CCC(C(=O)Nc1cc(N)cc(-c2cnc(NC(C)C)c(=O)n2CC(=O)NCc2ccc(C(=N)N)cc2)c1)c1ccccc1.O=C(O)C(F)(F)F.O=C(O)C(F)(F)F (stereo not drawn) [Example 143],> 7.00,< 4.52,<50.0,> 4.52
CC(C)Nc1ncc(-c2cc(N)cc(NC(=O)C3CC3)c2)n(CC(=O)NCc2ccc(C(=N)N)cc2)c1=O.O=C(O)C(F)(F)F.O=C(O)C(F)(F)F [Example 144],> 7.00,< 4.52,<50.0,< 4.52
"CC(C)Nc1ncc(-c2cc(N)cc(C(=O)NCc3ccccc3)c2)n(CC(=O)NCc2ccc(C(=N)N)c(O)c2)c1=O.O=C(O)C(F)(F)F [Example 161, 3-amino-5-[1-[2-({4-[amino(imino)methyl]-3-hydroxybenzyl}amino)-2-oxoethyl]-5-(isopropylamino)-6-oxo-1,6-dihydropyrazin-2-yl]-N-benzylbenzamide]",> 7.00,< 4.52,<50.0,< 4.52
"CC(C)Nc1ncc(-c2cc(N)cc(C(=O)NCc3ccc(F)cc3)c2)n(CC(=O)NCc2ccc(C(=N)N)c(O)c2)c1=O.O=C(O)C(F)(F)F [Example 162, 3-amino-5-[1-[2-({4-[amino(imino)methyl]-3-hydroxybenzyl}amino)-2-oxoethyl]-5-(isopropylamino)-6-oxo-1,6-dihydropyrazin-2-yl]-N-(4-fluorobenzyl) benzamide]",> 7.00,< 4.52,<50.0,< 4.52
CC[C@H](C)NC(=O)c1cc(N)cc(-c2cnc(NC(C)C)c(=O)n2CC(=O)NCc2c(F)c(O)c(C(=N)N)c(F)c2F)c1.Cl.Cl [Example 164],> 7.00,< 4.52,<50.0,< 4.52
COC(=O)CCNC(=O)c1cc(N)cc(-c2cnc(NC(C)C)c(=O)n2CC(=O)NCc2ccc(C(=N)N)cc2)c1 [Example 165],> 7.00,< 4.52,<50.0,< 4.52
CC(C)Nc1ncc(-c2cc(N)cc(C(=O)NCc3cccc(O)c3)c2)n(CC(=O)NCc2ccc(C(=N)N)cc2)c1=O [Example 166],> 7.00,< 4.52,<50.0,< 4.52
"CC[C@H](C)NC(=O)c1cc(N)cc(-c2cnc(NC(C)C)c(=O)n2CC(=O)NCc2ccc(C(=N)N)cc2O)c1.O=C(O)C(F)(F)F [Example 167, 3-amino-5-[1-[2-({4-[amino(imino)methyl]-2-hydroxybenzyl}amino)-2-oxoethyl]-5-(isopropylamino)-6-oxo-1,6-dihydropyrazin-2-yl]-N-[(1S)-1-methylpropyl]benzamide]",> 7.00,< 4.52,<50.0,> 4.52
